Source: patent publication US6867015B1, “Rapid microbiological test for the detection of antibacterial compounds” (Gist-Brocades B.V., priority 1995, dated 2005)

Tests used:
Assay type in all cases: cell-based
[1] = test system: Bacillus stearothermophilus var. calidolactis C953 spores; assay: Test type A: agar test tubes with bromocresolpurple and nutrient tablet, milk sample; settings: fresh cow's milk, 64° C.
Procedure: Test tubes of type A contained an agar medium prepared as follows: A solution was made of 12 g agar, 9 g sodium chloride and 50 ml of a 0.1 M triethanolamine buffer solution (pH=8.0) in 1000 ml distilled water. An amount of a solution of bromocresolpurple to give a final concentration of 20 mg per 1000 ml was also added. The final solution was sterilized for 20 minutes at 121° C. and cooled to about 60° C. To this solution different amounts of a suspension of Bacillus stearothermophilus var. calidolactis […] spores in distilled water were added to give final concentrations between 10^5 and 10^10 spores per ml. Sterile tubes with a diameter of about 9 mm were filled with 0.3 ml of the agar solution under aseptic conditions and immediately sealed, e.g. with aluminium foil. The agar solution in the test tubes was allowed to solidify in the test tubes while the test tubes were held in an upright position. The tubes were stored at a temperature between 5° C. and 15° C. A mixture was made of 100 g dextrose, 160 g Avicel PH101, 50 g tryptose, 14 g yeast extract and 15 g precirol. This mixture was sufficient to prepare about 18000 tablets with a diameter of approximately 3 mm and a thickness of approximately 1.9 mm. […] The time at which the colour of the agar medium became yellow was determined. […]

[2] = test system: Bacillus stearothermophilus var. calidolactis C953 spores; assay: Test type B: agar test tubes with Brilliant Black and Toluidine Blue, milk sample
Procedure: Test tubes of type B contained an agar medium prepared as follows: A solution was made of 10 g agar, 9 g sodium chloride, 2 g glucose, 2 g peptone, 2 g tryptone, 4 g yeast extract and 50 ml of a 0.1 M triethanolamine buffer solution (pH=8.0) in 1000 ml distilled water. The final solution was sterilized for 20 minutes at 121° C. and cooled to about 60° C. An amount of a solution of Brilliant Black to give a final concentration of 80 mg per 1000 ml and an amount of a solution of Toluidine Blue to give a final concentration of 3 mg per 1000 ml were also added. To this solution different amounts of a suspension of Bacillus stearothermophilus var. caildolactis C953 spores In distilled water were added to give final concentrations between 10^8 and 10^10 spores per ml. Sterile tubes with a diameter of about 9 mm were filled with 0.3 ml of the agar solution under aseptic conditions and Immediately sealed e.g. with an aluminum foil. The agar solution In the test tubes was allowed to solidity in the test tubes while the test tubes were held in an upright position. The tubes were stored at a temperature between 5° C. and 15° C. An amount of penicillin G of 0.003 I.U. per ml was added to fresh cow's milk. The control sample contained no penicillin G. Two of each of the test tubes of type B with concentrations of Bacillus stearothermophilus var. calidolactis spores as described in Example II were opened by removing the seal. Then 0.1 ml of each of the two milk samples was added to each of the test tubes and the test tubes were immediately placed in a waterbath kept at 64° C. Observations were made after 30 minutes to 3 hours. The time at which the colour of the agar medium became yellow was determined. As is shown in Table 1, the test duration correlated with the amount of spores added to the agar medium without influencing the sensitivity of the test in a negative way.

[3] = test system: Bacillus stearothermophilus var. calidolactis spores C953; assay: Test type C: microtiterplates with agar medium containing trimethoprim, milk sample
Procedure: For the preparation of the test plates (test type C) the procedure described in Example I was followed except that the nutrients described in Example III (dextrose, tryptose and yeast extract) were not added separately but were added to the initial agar medium in the same concentration as described in Example I. Also together with the buffer solution an amount of trimethoprim solution was added to give a final concentration of 60 μg per litre. To the wells of sterile microtiterplates 20 μl of the agar solution was added under asceptic conditions. The plates were immediately sealed with aluminium foil. The plates were stored at a temperature between 5° C. and 15° C. An amount of penicillin G of 3 ppb was added to fresh cow's milk. […] The control sample contained no penicillin G or sulphadiazine. The microtiterplates were opened by removing the seal. Then 20 μl of each of the three milk samples was added to each of the test plates (duplo) containing different concentrations of Bacillus stearothermophilus var. calidolactis spores […]. The plates were immediately placed in a waterbath kept at 64° C. Observations were made after 30 minutes to 150 minutes. The time at which the colour of the agar medium became yellow was determined. As is shown in table 2, the test duration correlated with the amount of spores added to the agar medium without influencing the sensitivity of the test in a negative way.

[4] = test system: Streptococcus thermophilus T101 (DSM 4022); assay: Test type D: detection of antibiotics in milk without agar, bromocresolpurple; settings: test duration of 80 minutes
Procedure: In this experiment Streptococcus thermophilus […] (DSM 4022) was sed for the determination of antibiotics in milk. Streptococcus thermophilus […] was grown using methods known per se. An amount of a solution of bromocresolpurple to give a final concentration of […] was added to fresh cow's milk. To part of the fresh cow's milk also an amount of penicillin G of 4 ppb added. The control sample contained no penicillin G. To the milk samples different amounts of Streptococcus thermophilus […] were added to give final concentrations between 10^7 and 10^9 CFU per ml. Immediately after preparation of the samples sterile tubes with a diameter of about 9 mm were filled with 0.3 ml of each milk sample (duplo). The tubes were immediately placed in a waterbath kept at 42° C. Observations were made after 30 minutes to 2 hours and 30 minutes. The time at which the colour of the agar medium became yellow was determined. As is shown in table 3, the test duration correlated with the amount of cells added to the milk without influencing the sensitivity of the test in a negative way.

SMILES	detectable amount of antibacterial compound (agar medium blue) [1] [I.U. per ml]	concentration detected in a milk sample ([2]; as little as 70 minutes, test organism more than 10^7 CFU per ml) [IU/ml]	concentration that can be detected ([2]; test type B, test duration of 70 minutes, milk) [I.U. per ml]	concentration detected in a milk sample ([2]; test unit of 0.3 ml agar solution in upright test tube of internal diameter 9 mm) [lU/ml]	concentration that can be detected ([3]; test duration of 80 minutes) [ppb]	concentration that can be detected ([3]; test duration of 90 minutes) [ppb]	concentration that can be detected [4] [ppb]
CC1(C)S[C@@H]2[C@H](NC(=O)Cc3ccccc3)C(=O)N2[C@H]1C(=O)O [penicillin G]	≥ 0.003	0.003	0.003	0.003	3	3	≥ 4
Nc1ccc(S(=O)(=O)Nc2ncccn2)cc1 [sulphadiazine]						100	
